Legend:
Assay in all cases: Bactericidal activity, log10 CFU/ml after 0, 30 and 60 minutes
Type in all cases: cell-based
[1] = tested on: Escherichia coli ATCC 47076; settings: baseline 7.3
Protocol: A frozen stock of E. coli ATCC 47076 was grown overnight (1 ml in 9 ml LB medium) in a shaker incubator (200 rpm at 37° C.) until the OD600nm of the medium reached 1.6-1.8. […] The Bacterial suspension was adjusted to 10^8 CFU/ml by dilution with sterile medium. The Bacterial cells were then washed three times with 0.9% NaNO3. The NaNo3 washing cycles was performed by transferring 5 ml of the bacterial suspensions into 15 ml test tubes and subjecting the suspension to centrifugation at 4000 rpm at 4° C. for 5 minutes, followed by removal of the supernatant and re-suspension of the bacterial cell pellet in 5 ml of 0.9% NaNO3. The bactericidal activity of various concentration combinations of silver ions (from AgNO3) and menthol (solubilized by the addition of 0.5% TWEEN 20) was then assessed by adding 5 ml of the tested combinations to the bacterial cell pellets prepared as described hereinbelow and re-suspending the cell pellets by vortex. A test tube containing only 0.9% NaNO3 served as control. The bacterial suspensions thus obtained were transferred to sterile glass tubes to reduce potential cell adsorption to the walls, and kept covered at 37° C. throughout the testing period. Following 5 minutes of static incubation, 100 μl samples of the treated bacterial suspension were removed, and […] decimal dilutions in NaNO3 0.9% of the suspension were dropped onto LB agar plates. The level of bacterial proliferation was assessed by counting the number of colonies that grew on the plates and calculating the CFU/ml and log10 CFU/ml following 18 hours of incubation at 37° C. Higher log10 CFU/ml calculated for a bacterial suspension, incubated with a specific combination, is indicative of a lower level of bactericidal activity of that combination. The bacterial growth protocol was essentially as described above only that bacteria cell lines were grown in BHI growth medium (and following the growth of the cells in the medium, the bacterial suspension was adjusted to 10^7 CFU/ml by dilution with sterile medium). In addition, in these experiments, the static incubation of each bacterial suspension with the silver ion+menthol combination was for 0, 30 and 60 minutes. […] Cells incubated with NaNO3 0.9% (w/v) solution alone, without the addition of any antiseptic agent, served as control. […] S. Block, Editor. 2000, Lippincott Williams and Wilkins, pp 1305-1328. […] A baseline level was defined as the observed bacteria growth at time 0 when no antiseptic agent was added to the bacterial suspension.

[2] = tested on: clinical strain of Multi Drug Resistant Acinetobacter baumannii; settings: baseline 6.4
Description: (§1) Various bacterial cells lines were obtained from the clinical strains collection of the Laboratory of Molecular Epidemiology and Antimicrobial Resistance, Tel Aviv Sourasky Medical Center. The bactericidal activity of the tested antiseptic combinations was thus tested against Klebsiella pneumoniae, a Methicillin Resistant clinical strain of Staphylococcus aureus (MRSA), a clinical strain of Staphylococcus epidermis, a clinical strain of Extended Spectrum β-lactamase producing Escherichia coli, a clinical strain of Multi Drug Resistant Acinetobacter baumannii, and a clinical strain of Multi Drug Resistant Pseudomonas aeruginosa.
(§2) The bacterial growth protocol was essentially as described above only that bacteria cell lines were grown in BHI growth medium (and following the growth of the cells in the medium, the bacterial suspension was adjusted to 10^7 CFU/ml by dilution with sterile medium). In addition, in these experiments, the static incubation of each bacterial suspension with the silver ion+menthol combination was for 0, 30 and 60 minutes.
(§3) The effect of a combination of 0.01% silver ions and 0.05% menthol (solubilized by 0.5% (v/v) TWEEN 20) on the growth and viability of various types of bacteria was evaluated.
(§4) Cells incubated with NaNO3 0.9% (w/v) solution alone, without the addition of any antiseptic agent, served as control.
(§5) Table 2 presents the log10 CFU/ml calculated for different types of bacterial cell suspensions incubated for 0, 30 and 60 minutes with no antiseptic agent (control) or either 0.01% silver ions (0.01% AgNO3) alone, 0.05% menthol alone or a combination of 0.01% silver ions and 0.05% menthol. A baseline level was defined as the observed bacteria growth at time 0 when no antiseptic agent was added to the bacterial suspension.

Klebsiella pneumoniae = settings: baseline 6.8
Description: as §1, §2, §3, §4, §5

[3] = tested on: clinical strain of Extended Spectrum β-lactamase producing Escherichia coli; settings: baseline 5.9
Description: as §1, §2, §3, §4, §5

[4] = tested on: Methicillin Resistant clinical strain of Staphylococcus aureus (MRSA); settings: baseline 6.1
Description: as §1, §2, §3, §4, §5

[5] = tested on: clinical strain of Staphylococcus epidermis; settings: baseline 5.4
Description: as §1, §2, §3, §4, §5

[6] = tested on: clinical strain of Multi Drug Resistant Pseudomonas aeruginosa; settings: baseline 6.5
Description: as §1, §2, §3, §4, §5

| SMILES | log10 CFU/ml of bacteria ([1]; treated for 0 minutes) [log10 CFU/ml] | log10 CFU/ml of bacteria ([1]; treated for 30 minutes) [log10 CFU/ml] | log10 CFU/ml of bacteria ([1]; treated for 60 minutes) [log10 CFU/ml] | log10 CFU/ml of bacteria ([2]; treated for 0 minutes) [log10 CFU/ml] | log10 CFU/ml of bacteria ([2]; treated for 30 minutes) [log10 CFU/ml] | log10 CFU/ml of bacteria ([2]; treated for 60 minutes) [log10 CFU/ml] | log10 CFU/ml of bacteria (Klebsiella pneumoniae; treated for 0 minutes) [log10 CFU/ml] | log10 CFU/ml of bacteria (Klebsiella pneumoniae; treated for 30 minutes) [log10 CFU/ml] | log10 CFU/ml of bacteria (Klebsiella pneumoniae; treated for 60 minutes) [log10 CFU/ml] | log10 CFU/ml of bacteria ([3]; treated for 0 minutes) [log10 CFU/ml] | log10 CFU/ml of bacteria ([3]; treated for 30 minutes) [log10 CFU/ml] | log10 CFU/ml of bacteria ([3]; treated for 60 minutes) [log10 CFU/ml] | log10 CFU/ml of bacteria ([4]; treated for 0 minutes) [log10 CFU/ml] | log10 CFU/ml of bacteria ([4]; treated for 30 minutes) [log10 CFU/ml] | log10 CFU/ml of bacteria ([4]; treated for 60 minutes) [log10 CFU/ml] | log10 CFU/ml of bacteria ([5]; treated for 0 minutes) [log10 CFU/ml] | log10 CFU/ml of bacteria ([5]; treated for 30 minutes) [log10 CFU/ml] | log10 CFU/ml of bacteria ([5]; treated for 60 minutes) [log10 CFU/ml] | log10 CFU/ml of bacteria ([6]; treated for 0 minutes) [log10 CFU/ml] | log10 CFU/ml of bacteria ([6]; treated for 30 minutes) [log10 CFU/ml] | further results |
| --- | --- | --- | --- | --- | --- | --- | --- | --- | --- | --- | --- | --- | --- | --- | --- | --- | --- | --- | --- | --- | --- |
| CC(C)[C@H]1CC[C@@H](C)C[C@@H]1O [0.05% Menthol, 5-methyl-2-propan-2-yl-cyclohexan-1-ol] | 5.3 | 0 | 0 | 6.4 | 6.3 | 6.2 | 6.2 | 4.9 | 3.8 | 4.9 | 4.9 | 4.9 | 6.3 | 6.3 | 6.2 | 5.4 | 5.4 | 5.3 | 5.8 | 3.5 | log10 CFU/ml of bacteria ([6]; treated for 60 minutes): 2.5 log10 CFU/ml |
| O=[N+]([O-])[O-].[Ag+] [0.01% AgNO3, silver nitrate] | 6.4 | 0 | 0 | 6.3 | 0 | 0 | 0 | 0 | 0 | 4.8 | 0 | 0 | 5.4 | 0 | 0 | 0 | 0 | 0 | 5.1 | 0 | log10 CFU/ml of bacteria ([6]; treated for 60 minutes): 0 log10 CFU/ml |

— patent US8968794B2, “Antiseptic compositions and uses thereof” (Ramot at Tel-Aviv University Ltd., priority 2009, dated 2015)
